Measured values taken from patent US20040024033A1 (priority 1998, published 2004).

Tests used:
[1] = test system: human HCT-15 colon carcinoma; assay type: in vivo, female BALB/c nude mice
Method: (§1) Female or male BALB/c nu/nu (nude) mice are kept under sterile conditions (10 to 12 mice per Type III cage) with free access to food and water. Mice weigh between 20 and 25 grams at the time of tumor implantation. Tumors are established by subcutaneous injection of cells (minimum 2×10^6 cells in 100 μl PBS or medium) in carrier mice (4-8 mice per cell line). The resulting tumors are serially passaged for a minimum of three consecutive transplantations prior to start of treatment. Tumor fragments (approx. 25 mg) are implanted s.c. into the left flank of animals with a 13-gauge trocar needle while the mice are exposed to Forene (Abbott, Switzerland) anesthesia.
(§2) Tumor growth and body weights are monitored once or twice weekly. All treatments are administered intravenously (i.v.) and are initiated when a mean tumor volume of approximately 100 to 250 mm^3 is attained, depending upon the tumor type. Tumor volumes are determined using the formula […] (see Cancer Chemother. Pharmacol. 24:148-154, [1989]). Treatments with epothilone B vary the dose and the frequency of administration. Comparator agents are administered according to previously determined optimal treatment regimens. In addition to presenting changes in tumor volumes over the course of treatment, antitumor activity is expressed as T/C% (mean increase of tumor volumes of treated animals divided by the mean increase of tumor volumes of control animals multiplied by 100). Tumor regression (%) represents the smallest mean tumor volume compared to the mean tumor volume at the start of treatment, according to the formula Regression (%)=(1−Vend/Vstart)×100 (Vend=final mean tumor volume, Vstart=mean tumor volume at the start of treatment. Any animals in which the tumor has reached a size exceeding approximately 1.5 to 2.5 cm^3 are sacrificed. Details can be found below.
Tumor fragments of approximately 25 mg are implanted into the left flank of each female nude mouse (n=8 per group). Treatments are started on day 14 after tumor transplantation. Epothilone B is administered once at 4 mg/kg, i.v. on day 14.5-Fluorouracil is administered at 75 mg/kg, i.v., on days 14 and 21. TAXOL® is administered i.v. at 20 mg/kg/day, every second day for 5 treatments (days 14, 16, 18, 20 and 22). Antitumor activity is expressed as T/C% (mean increase of tumor volumes of treated animals divided by the mean increase of tumor volumes of control animals multiplied by 100). Tumor regression (%) represents the final mean tumor volume compares to the mean tumor volume at the start of treatment. Δ Tumor volumes represent the tumor volume on the last treatment day minus the tumor volume on the first treatment day. Statistical analyses on Δ tumor volumes uses Dunnett's test to compare treatment groups to controls. Statistical analyses on body weight changes uses paired t-tests comparing body weights before treatment to those at the end of treatment; mice weigh ˜20-25 g at the start of treatment. Not significant is indicated by the abbreviation ,ns”. Data presented are means±SEM from animals surviving to the end of the experiment.

[2] = test system: human COLO 205 colon tumors; assay type: in vivo, female BALB/c nude mice; details: 75 mg/kg, i.v. every 7 days; day 32
Method: as §1, §2
Tumor fragments of approximately 25 mg are implanted into the left flank of each female nude mouse (n=7 per group); a subcutaneous estrogen pellet is placed on the opposite flank. Treatments are started on day 14 after tumor transplantation. epothilone B is administered at 4 mg/kg, i.v., either once or once per week (days 14, 21, 28) or every second week (days 14 and 28). 5-fluorouracil is administered i.v. at 75 mg/kg on days 14, 21, 28. Data presented are from animals surviving to day 32, four days after the last treatments. Antitumor activity is expressed as T/C% (mean increase of tumor volumes of treated animals divided by the mean increase of tumor volumes of control animals multiplied by 100). Tumor regression (%) represents the final mean tumor volume compared to the mean tumor volume at the start of treatment. Changes (A) in tumor volumes represent the tumor volume on the last treatment day minus the tumor volume on the first treatment day.

[3] = test system: ZR-75-1 (Breast); assay: Antiproliferative assay, ZR-75-1; assay type: cell-based; details: Homo sapiens, 120 h, 5 d exposure, mean ± SD, n = 3, read-out: IC50-values for growth inhibition
Method: (§3) Antiproliferative assays are performed as previously described (Int. J. Cancer 43, 851-6 (1989)). Briefly, cells are seeded at 1.5×10^3 cells/well into 96-well microtiter plates and incubated overnight. Compounds are added in serial dilutions on day 1. The plates are then incubated for an additional 2 to 5 days, allowing for at least one cell doubling (cell line dependent), after which the cells are fixed with 3.3% v/v glutaraldehyde, washed with water and stained with 0.05% w/v methylene blue. After washing, the dye is eluted with 3% V/V HCl and the optical density measured at 665 nm with a SpectraMax 340 (Bucherer, Basel, Switzerland). IC50 values are determined by a computerized system (SoftPro, Bucherer, Basel, Switzerland) using the formula (OD test−OD start)/(OD control−OD start)×100. IC50 is defined as the drug concentration which leads to 50% of cells per well compared to control cultures (100%) at the end of incubation period.

[4] = test system: HCT-15 (Colon); assay: Antiproliferative assay, HCT-15; assay type: cell-based; details: Homo sapiens, 120 h, 5 d exposure, mean ± SD, n = 3, read-out: IC50-values for growth inhibition
Source text: Human colorectal adenocarcinoma cell line HCT-15 (ATCC CCL 225) is from the American Type Culture Collection (Rockville, Md., USA), and the cells are cultivated in vitro as recommended by the supplier. HCT-15 is an epithelial-like cell line (Cancer Res. 39: 1020-25 [1979]) that is multi-drug resistant by virtue of over-expression of P-glycoprotein (P-gp, gp170, MDR-1; Anticancer Res. 11: 1309-12 [1991]; J. Biol. Chem. 264: 18031-40 [1989]; Int. J. Cancer 1991; 49: 696-703 [1991]) and glutathione-dependent resistance mechanisms (Int. J. Cancer 1991; 49: 688-95.[1991]).
as §3, with “IC50 is defined as the drug concentration which leads to 50% of cells per well compared to control cultures (100%) at the end of incubation period.” left out

[5] = test system: KB-8511 (Epidermoid, MDR); assay: Antiproliferative assay, KB-8511; assay type: cell-based; details: Homo sapiens, 48 h, 2 d exposure, mean ± SD, read-out: IC50-values for growth inhibition
Method: The human epidermal (mouth) carcinoma cell line KB-8511 (a P-gp over-expressing cell line derived from the epidermoid (mouth) KB-31 carcinoma cell line) is obtained from Dr. R. M. Baker, Roswell Park Memorial Institute (Buffalo, N.Y., USA) (for description see Akiyama et al., Somat. Cell. Mol. Genetics 11, 117-126 (1985) and Fojo A., et al., Cancer Res. 45, 3002-3007 (1985)) and is cultured as previously described (Meyer, T., et al., Int. J. Cancer 43, 851-856 (1989)): KB-8511 cells, like KB-31, are derived from the KB cell line (ATCC) and they are human epidermal carcinoma cells; KB-31 cells can be grown in mono-layer using Dulbecco's modified Eagle's medium (D-MEM) with 10% fetal calf serum (M.A. Bioproducts), L-glutamine (Flow), penicillin (50 units/ml) and streptomycin (50 μg/ml (Flow); they then grow with a doubling time of 22 h, and their relative plating efficiency is approximately 60%.
(§4) Antiproliferative assays are performed as previously described (Int. J. Cancer 43, 851-6 (1989)). […] After washing, the dye is eluted with 3% V/V HCl and the optical density measured at 665 nm with a SpectraMax 340 (Bucherer, Basel, Switzerland). IC50 values are determined by a computerized system (SoftPro, Bucherer, Basel, Switzerland) using the formula (OD test−OD start)/(OD control−OD start)×100. […]

[6] = test system: PC-3M (Prostate); assay: Antiproliferative assay, PC-3M; assay type: cell-based; details: Homo sapiens, 72 h, 3 d exposure, mean ± SD, read-out: IC50-values for growth inhibition
Method: A human androgen-independent prostate cancer cell line is used to establish subcutaneous and orthotopic models in mice. The human metastatic prostate carcinoma PC-3M is obtained from Dr. I. J. Fidler (MD Anderson Cancer Center, Houston, Tex., USA) and is cultured in Ham's F12K media supplemented with 7% v/v FBS. The PC-3M cell line is the result of isolation from liver metastasis produced in nude mice subsequent to intrasplenic injection of PC-3 cells [ATCC CRL 1435; American Type Culture Collection (Rockville, Md., USA)], and they can grow in Eagle's MEM supplemented with 10% fetal bovine serum, sodium pyruvate, non-essential amino acids, L-glutamine, a two-fold vitamin solution (Gibco Laboratories, Long Island, N.Y.) and penicillin-streptomycin (Flow Laboratories, Rockville, Md.). The PC-3M cell line is hormone-insensitive (that is, it grows in the absence of androgens). […] No normal Y chromosomes can be detected by Q-band analysis.
as §4

Structure (SMILES) | % Body Weight Change ([1]; 75 mg/kg, i.v., on days 14 and 21) [%] | D Body Weight ([1]; 75 mg/kg, i.v., on days 14 and 21, mean ± SEM) [g] | Mortalities (deaths) ([1]; two 75 mg/kg administrations) [%] | T/C [2] [%] | IC50 [3] [nM] | IC50 [4] [nM] | IC50 [5] [nM] | IC50 [6] [nM]
O=c1[nH]cc(F)c(=O)[nH]1 [5-fluorouracil, reference compound] | 9 ± 4 | 2.0 ± 0.7 | 50 | 18 |  |  |  | 
CC(=O)O[C@H]1C(=O)[C@@]2(C)[C@H]([C@H](OC(=O)c3ccccc3)[C@]3(O)C[C@H](OC(=O)[C@H](O)[C@@H](NC(=O)c4ccccc4)c4ccccc4)C(C)=C1C3(C)C)[C@]1(OC(C)=O)CO[C@@H]1C[C@@H]2O [paclitaxel] |  |  |  |  | 3.6 ± 1.87 | 106 ± 54 | 994 | 6.74
